From patent US20210123061A1, “METHODS AND COMPOSITIONS FOR TREATING INFLAMMATORY DISEASE OR DISORDER” (THE BRIGHAM AND WOMEN'S HOSPITAL, INC., priority 2018, published 2021)

System: STAT1 phosphorylation (Ser727, Tyr701)
Assay: Immunoblot of STAT1 phosphorylation in IFN-γ-stimulated PBMC-derived macrophages
Type: cell-based, human
Conditions: pre-treatment two hours, 60 minutes of IFN-γ stimulation, vs DMSO
Experimental: FIGS. 3A-3F show RSK1 is activated through JAK signaling and its inhibition suppresses STAT1 phosphorylation at Ser727 in human primary macrophages in response to IFN-γ. (FIG. 3A) PBMC-derived macrophages were pre-treated with DMSO or 10 μM a pan-JAK inhibitor, pyridone-6, for two hours and then stimulated with IFN-γ for indicated time under serum starvation. Cell lysates were subjected to immunoprecipitation with normal IgG or anti-RSK1 followed by immunoblot analysis using the indicated antibodies. WCL, whole cell lysate. N=3 donors. (FIG. 3B) Immunoblots of cell lysates from macrophages that were transfected with control siRNA or RSK1 siRNA followed by stimulation with IFN-γ for indicated time under serum starvation. N=2 donors. (FIG. 3C) Immunoblots of cell lysates from macrophages that were pre-treated with DMSO or BI-D1870 for two hours and subsequently left unstimulated or stimulated with IFN-γ for 1 hour under serum starvation. (FIG. 3D) Densitometric based quantification (ImageJ Software) of STAT1-pSer727 in panel (FIG. 3C) plus three additional donors. The phosphorylation levels in cells pretreated with DMSO and stimulated were defined as 1.0. Data are means±SE. N=6 donors. **P<0.01 indicate significance for phosphorylation levels compared to control (treatment with DMSO and IFN-γ) by Dunnett's comparison test. (FIG. 3E) Macrophages were treated with DMSO or BI-d1870 for two hours followed by IFN-γ stimulation under serum starvation. Cell lysates were subjected to immunoprecipitation with normal IgG or anti-STAT1-pSer727 followed by SYPRO ruby stain or immunoblot analysis with the indicated antibodies. Immunoprecipitants in the gel (red square) were in-gel digested for parallel reaction monitoring (PRM) mass spectrometry. (FIG. 3F) Quantification of PRM ions (MS/MS ions) of the indicated STAT1 peptide harboring a phosphorylation at Ser727 (and oxidized methionine, m), generated from the digest of panel […].
Cell culture of human PBMC-derived primary macrophages. […]

With `CC(C)CCN1c2nc(Nc3cc(F)c(O)c(F)c3)ncc2N(C)C(=O)C1C` (centres unmarked) [BI-D1870] the phospho-STAT1-Ser727 signal was “attenuated signal” and the phospho-STAT-Tyr701 signal was “no change”.
